Measured values reported in patent US20180264124A1, “DRUG COMPLEX” (Shimadzu Corporation, priority 2015, published 2018).
Ends that are not written are not given here.

System: HUVEC
Test: HUVEC growth inhibition test (WST-1 assay)
Settings: 25 ng/mL VEGF, 24 hours

Q: With “YT1-Cem: non-VEGF-binding helix-loop-helix peptide YT1-Cys (SEQ ID NO: 18) reacted with CemCH2-S-TNB; control complex (CAELAALEAELAALEGGGGGGGKLAALKAKLAALKA; also: Cem conjugated via the Cys (CemCH2-S-TNB reaction))” as the substance, how does the cell growth inhibition read?
A: did not inhibit cell growth
